Read-outs that look alike come from different tables or passages of the source.
What was measured:
HepG2 cells [1] = conditions: cited from earlier work
Upcyte human hepatocytes = conditions: In vitro Assay; ref Tolosa 2019; cited from earlier work
PHH spheroids = conditions: cited from earlier work
human hepatocytes = conditions: cited from earlier work
[2] = Plasma free fraction (fu) and unbound Cmax (Cmax,u); type: in vitro ADME, human; conditions: unbound plasma Cmax
Experimental: The prediction of DILI severity was evaluated further using the 3D combined HCI assays using plasma-free fraction. The majority of fu values were obtained from literature, when unavailable in-house prediction was utilised. Unbound plasma Cmax concentrations (Cmax,u) were derived by multiplying total plasma Cmax with the corresponding free fraction (fu) for each compound.

[3] = test system: THLE or HepG2 cells, isolated mitochondria, BSEP; conditions: cited from earlier work
hLiMTs [4] = conditions: cited from earlier work
[5] = plasma free fraction; cited from earlier work
[6] = test system: THLE-Null and THLE-3A4 cells; conditions: In vitro Assay; ref Gustafsson 2014; cited from earlier work
rBsep = conditions: In vitro Assay; ref Dawson 2012; cited from earlier work
HepG2 cells [7] = conditions: cited from earlier work; remark: listed apart in the source
PHH = conditions: cited from earlier work
[8] = cited from earlier work
hLiMTs [9] = assay: Combined HCI (HCS) and cellular ATP 3D assay in hLiMTs
HepaRG spheroids = assay: Combined HCI (HCS) and cellular ATP 3D assay in HepaRG spheroids; conditions: for AC50 / minimal effective concentration: Homo sapiens
[10] = ref Chen 2011; cited from earlier work
[11] = test system: HepG2 cells, primary human hepatocytes; conditions: In vitro Assay; ref Garside 2014; cited from earlier work
[12] = read-out: Human plasma Cmax; total plasma Cmax.tot, median of 9 literature references; cited from earlier work
[13] = test system: primary human hepatocytes, NIH3T3 fibroblasts, BSEP, CYP3A4; conditions: cited from earlier work
[14] = test system: HepG2 C3A spheroid, BSEP, Glu/Gal in HepG2 cells, bioactivation; conditions: cited from earlier work
HepG2 cells [15] = conditions: In vitro Assay; ref Tolosa 2012; cited from earlier work
[16] = cited from earlier work; remark: listed apart in the source
[17] = In vitro Assay, ref Persson 2013
[18] = Modeled in vitro assays (cytotoxicity, mitochondrial dysfunction, BSEP), ref Aleo et al. 2019
[19] = In vitro Assay, ref Proctor 2017
[20] = Microtissue model structural based (HCI), combined HCS and ATP, MEC < 25 × Cmax.tot cut-off
[21] = In vitro Assay, ref Schadt 2015

**Q.** What does the source list for `CN(Cc1cnc2nc(N)nc(N)c2n1)c1ccc(C(=O)N[C@@H](CCC(=O)O)C(=O)O)cc1` [methotrexate, reference compound]?
**A.** Cluser analysis (HepG2 cells [1]; [17]): -VE; Structural based (HCI) (HepG2 cells [1]; [17]): -VE; DILI in vitro assay prediction, Persson (2013) (HepG2 cells [1]; Structural based (HCI), HepG2, ref Persson et al. 2013): -VE; Upcytes multi donor assay 14day data (Upcyte human hepatocytes): +VE; hLiMTs ATP <20 x Cmax (PHH spheroids; In vitro Assay, ref Vorrink 2018): +VE (IC20 < 20 × Cmax.tot cut-off); DILI in vitro assay prediction, Vorrink (2018) (PHH spheroids; PHH spheroids, ATP, 14 days, IC20 < 20 × Cmax.tot, ref Vorrink et al. 2018): +VE (IC20 < 20 × Cmax.tot cut-off); Structural based (HCI) (human hepatocytes; In vitro Assay, ref Xu 2008): -VE; DILI in vitro assay prediction, Xu (2008) (human hepatocytes; Structural based (HCI), human hepatocytes, ref Xu et al. 2008): -VE; Human plasma Cmax,u [2]: 2.315 µM; Partition Hybrid HRM Score ([3]; In vitro Assay, ref Aleo 2019): +VE; Ro2 Hybrid HRM Score ([3]; In vitro Assay, ref Aleo 2019): +VE; Partition Hybrid HRM Score ≥4, Aleo (2019) [3, 18]: +VE (Partition Hybrid HRM Score ≥4); Partition Hybrid HRM Score ≥8, Aleo (2019) [3, 18]: -VE; Rule of Two hybrid HRM Score ≥3, Aleo (2019) [3, 18]: +VE (Rule of Two hybrid HRM Score ≥3); Rule of Two hybrid HRM Score ≥8, Aleo (2019) [3, 18]: -VE; hLiMTs ATP <100uM (hLiMTs [4]; [19]): -VE; hLiMTs/100uM, Proctor (2017) (hLiMTs [4]; hLiMTs, ATP, IC50 threshold 100 µM, ref Proctor et al. 2017): -VE; fu [5]: 0.500; THLE-Null [6]: -VE; Inhibition of rBsep cutoff<1& cmax u>.2 (rBsep): -VE; Inhibition of rBsep cutoff<3 (rBsep): -VE; Structural based (HCI) (HepG2 cells [7]; In vitro Assay, ref O'Brien 2006): +VE; DILI in vitro assay prediction, O'Brien (2006) (HepG2 cells [7]; Structural based (HCI), HepG2, ref O'Brien et al. 2006): +VE (lowest HCI endpoint IC50 (or in the absence of dose–response < 100 µM) < 30 × total human plasma exposure levels (Cmax.tot)); PHH/100uM, Proctor (2017) (PHH; 2D PHH, ATP, IC50 threshold 100 µM, ref Proctor et al. 2017): -VE; PHH ATP <100uM (PHH; [19]): -VE; Assigned DILI category ([8]; Chen et al. 2016 or literature alignment, ref Chen et al. 2016): 3; In vivo DILI ([8]; […]): +VE; In vivo DILI ([8]; ref Aleo 2019): +VE; In vivo DILI ([8]; ref Dawson 2012): +VE; In vivo DILI ([8]; ref Garside 2014): +VE; In vivo DILI ([8]; ref Gustafsson 2014): +VE; In vivo DILI ([8]; ref O'Brien 2006): +VE; In vivo DILI ([8]; ref Persson 2013): +VE; In vivo DILI ([8]; ref Proctor 2017): +VE; In vivo DILI ([8]; ref Schadt 2015): +VE; In vivo DILI ([8]; ref Tolosa 2012): +VE; In vivo DILI ([8]; ref Tolosa 2019): +VE; In vivo DILI ([8]; ref Vorrink 2018): +VE; In vivo DILI ([8]; ref Williams 2019): +VE; In vivo DILI ([8]; ref Xu 2008): +VE; DILI prediction hLiMTs, HCI alone (hLiMTs [9]; HCS endpoints only, 25 × Cmax.tot cut-off): detection; AC50 (hLiMTs [9]; Homo sapiens, read-out: HCS endpoint AC50): 16900 nM; minimal effective concentration (hLiMTs [9]; Homo sapiens, read-out: HCS endpoint MEC): 0.703 µM; DILI prediction hLiMTs (HCS-MEC) (hLiMTs [9]; [20]): +VE (MEC < 25 × Cmax.tot cut-off); DILI prediction hLiMTs, ATP alone (hLiMTs [9]; cellular ATP only, 25 × Cmax.tot cut-off): unpredicted; hLiMTs <25x Avg Cmax ATP (hLiMTs [9]; hLiMTs, ATP endpoint, cut-off <25x Avg Cmax): -ve; hLiMTs <100x Avg Cmaxu ATP (hLiMTs [9]; hLiMTs, ATP endpoint, cut-off <100x Avg Cmaxu): -ve; hLiMTs <25x Avg Cmax HCS (hLiMTs [9]; hLiMTs, HCS endpoints, cut-off <25x Avg Cmax): +ve; hLiMTs <100x Avg Cmaxu HCS (hLiMTs [9]; hLiMTs, HCS endpoints, cut-off <100x Avg Cmaxu): +ve (<100x Avg Cmaxu); hLiMTs <25x Avg Cmax All (hLiMTs [9]; hLiMTs, all endpoints (ATP and HCS), cut-off <25x Avg Cmax): +ve; hLiMTs Cmax max All (hLiMTs [9]; hLiMTs, all endpoints, Cmax max used): +ve; hLiMTs Cmax min All (hLiMTs [9]; hLiMTs, all endpoints, Cmax min used): -ve; hLiMTs <10 uM All (hLiMTs [9]; hLiMTs, all endpoints, cut-off <10 uM): +ve (<10 uM); hLiMTs <100x Avg Cmaxu All (hLiMTs [9]; hLiMTs, all endpoints, cut-off <100x Avg Cmaxu): +ve (<100x Avg Cmaxu); HepaRG <25x Avg Cmax ATP (HepaRG spheroids; HepaRG, ATP endpoint, cut-off <25x Avg Cmax): +ve; HepaRG <100x Avg Cmaxu ATP (HepaRG spheroids; HepaRG, ATP endpoint, cut-off <100x Avg Cmaxu): +ve (<100x Avg Cmaxu); HepaRG <25x Avg Cmax HCS (HepaRG spheroids; HepaRG, HCS endpoints, cut-off <25x Avg Cmax): +ve; HepaRG <100x Avg Cmaxu HCS (HepaRG spheroids; HepaRG, HCS endpoints, cut-off <100x Avg Cmaxu): +ve (<100x Avg Cmaxu); HepaRG <25x Avg Cmax All (HepaRG spheroids; HepaRG, all endpoints (ATP and HCS), cut-off <25x Avg Cmax): +ve; HepaRG Cmax max All (HepaRG spheroids; HepaRG, all endpoints, Cmax max used): +ve; HepaRG Cmax min All (HepaRG spheroids; HepaRG, all endpoints, Cmax min used): +ve; HepaRG <10 uM All (HepaRG spheroids; HepaRG, all endpoints, cut-off <10 uM): +ve (<10 uM); HepaRG <100x Avg Cmaxu All (HepaRG spheroids; HepaRG, all endpoints, cut-off <100x Avg Cmaxu): +ve (<100x Avg Cmaxu); AC50 (HepaRG spheroids; HepaRG, read-out: ATP endpoint AC50): 200 nM; minimal effective concentration (HepaRG spheroids; HepaRG, read-out: ATP endpoint MEC): 0.2 µM; AC50 (HepaRG spheroids; HepaRG, read-out: HCS endpoint AC50): 200 nM; minimal effective concentration (HepaRG spheroids; HepaRG, read-out: HCS endpoint MEC): 0.2 µM; DILI prediction HepaRG spheroids (HCS-MEC) (HepaRG spheroids; [20]): +VE (MEC < 25 × Cmax.tot cut-off); DILI Score (FDA) (1-8) [10]: 3; Cluster 1-6 +VE Assay [11]: -VE; Cmax [12]: 4.63 µM; DILI in vitro assay prediction, Schadt (2015) ([13]; BSEP & Metabolism based, ref Schadt et al. 2015): -VE; Cellular toxicity (3T3 cells) [13, 21]: -VE; GSH adduct HML [13, 21]: -VE; Hepatocyte cellular toxicity [13, 21]: -VE; MitoTox 3T3 [13, 21]: -VE; TDI CYP3A4 [13, 21]: -VE; hBSEP inhibition [13, 21]: -VE; Bayesian Machine Learning DILI prediction, Williams (2019) ([14]; Bayesian modeling, ref Williams et al. 2019): +VE; Bayesian Machine Learning ([14]; In vitro Assay, ref Williams 2019): +VE; Structural based (HCI) (HepG2 cells [15]): +VE; DILI severity category (Chen et al. [2016]) ([16]; LTKB DILIrank category, ref Chen et al. 2016): Most; DILI severity category (Chen 2016) ([16]; human DILI classification, LTKB DILIrank, ref Chen et al. 2016): Most; DILI severity category ([16]; human DILI severity, ref Chen et al.): Most; DILI +VE (5-8), DILI -VE (-4) ([16]; ref Chen 2016): +VE; DILI severity category ([16]; ref Chen 2016): vMost-DILI-Concern

— article PMC7395068, “The evolution of strategies to minimise the risk of human drug-induced liver injury (DILI) in drug discovery and development” (Archives of Toxicology, 2020)
